Article PMC11005471 (Frontiers in Veterinary Science, 2024)
Like-named read-outs stand apart in the source and are kept apart here.

Tests used:
Bbp [1] = format: biochemical, Brucella suis
Bbp [2] = format: biochemical, Brucella suis; remark: listed apart in the source

**Q.** How did the Km (Bbp [1]) turn out when O=P(O)(O)OC[C@H]1OC(O)(COP(=O)(O)O)[C@@H](O)[C@@H]1O (some centres unmarked) [F1,6bP] was run?
**A.** The Km was 53.2 ± 6.3 µM.

**Q.** For O=C(COP(=O)(O)O)[C@@H](O)[C@H](O)[C@H](O)[C@H](O)COP(=O)(O)O [S1,7bP], which Km (Bbp [2]) is on record?
**A.** The Km was 13.9 ± 3.2 µM.
